Like-named read-outs stand apart in the source and are kept apart here.

The subject of one series is T1, human ABCG2.
T1 construct: expressed in transfected cells; host or cells: MDCK-II cells stably transduced with hABCG2 cDNA (made in the authors' institute)
The experiment in a line: Transepithelial transport, MDCK-II cells transduced with hABCG2. The class given is in vitro ADME. As to conditions: MDCK-II hABCG2, 5 µM, read-out: efflux transport ratio r. From the text: (§1) Polarized Madin-Darby Canine Kidney (MDCK-II) cells (ECACC 00062107) stably transduced with either human (h) ABCB1, hABCG2 or mouse (m) Abcg2 cDNA were generated in our institute between 1995–2005. The proper identity and functionality, such as highly characteristic growth and drug transporter properties, including inhibitor sensitivity, were regularly checked in these epithelial cells. Mycoplasma routinely tested negative in these cells. The passage number was 10–15 when used in the transport experiments.
(§2) Transepithelial transport experiments were performed as previously described with 12-well plates (Transwell 3414, Corning Inc., Kennebunk, ME, USA) containing microporous polycarbonate membrane filters (3.0 µm pore size, 12 mm diameter). […]
(§3) After pre-incubation with 5 µM zosuquidar (ABCB1 inhibitor) and/or 5 µM Ko143 (ABCG2/Abcg2 inhibitor) in both compartments (when appropriate) for 1 h, the transport phase was initiated (t = 0) by replacing the medium in apical and basolateral compartments with fresh DMEM with 10% FBS and the appropriate inhibitor(s), and repotrectinib at 5 µM in the donor compartment. […] The active transport ratio r, calculated by dividing the amount of apically directed drug transport by basolaterally directed drug translocation after 8 h, was used to assess active transport of repotrectinib.

The next series deals with T2, mouse Abcg2.
T2 construct: expressed in transfected cells; host or cells: MDCK-II cells stably transduced with mAbcg2 cDNA (made in the authors' institute)
Description: Transepithelial transport, MDCK-II cells transduced with mAbcg2. The conditions noted are these: MDCK-II mAbcg2, 5 µM, read-out: efflux transport ratio r. The class given is in vitro ADME.
Description: as §1, §2, §3

The mark [1] stands for this setting: pH 7.4, with zosuquidar 5 µM + Ko143 5 µM, + zosuquidar 5 µM + Ko143 5 µM.
[2] abbreviates: pH 7.4, with zosuquidar 5 µM, + zosuquidar 5 µM.

With `C[C@H]1CNC(=O)c2cnn3ccc(nc23)N[C@H](C)c2cc(F)ccc2O1` [repotrectinib], the efflux ratio at 8 h, 5 µM in the series on human ABCG2 (setting [1]) was 0.95; in the series with human ABCG2 (setting [2]) it was 5.6; in the series on mouse Abcg2 (setting [1]), 1.1; in the series with mouse Abcg2 (setting [2]), 40.

(Values after article PMC8619046, “ABCB1 and ABCG2 Control Brain Accumulation and Intestinal Disposition of the Novel ROS1/TRK/ALK Inhibitor Repotrectinib, While OATP1A/1B, ABCG2, and CYP3A Limit Its Oral Availability” (Pharmaceutics, 2021).)
